Assay results from patent publication US20130281400A1, “Metabolic Downregulation for Cell Survival” (Wake Forest University Health Sciences, priority 2010, published 2013).

Legend:
[1] = tested on: C2C12 cells, murine myoblasts; test: MTS assay of metabolic activity of viable cells under hypoxia (0.1% O2) with daily adenosine; type: cell-based
Method: 500 μL of a cell suspension (C2C12 cells, murine myoblasts) in high glucose Dulbecco's modified Eagle's medium (DMEM, Gibco) containing 10% FBS, 500 U/mL penicillin and 500 μg/mL streptomycin was placed in each well of a 48-well culture plate at a density of 1052 (FIG. 2) and 2105 (FIG. 3) cells/cm^2. Cells were incubated for 24 hr in normoxic conditions (21% O2, 37° C.) prior to placement in a hypoxic chamber. At day 0, the plates designated as the hypoxic group were transferred to the hypoxic chamber (0.1% O2). […] Another group receiving daily doses of adenosine ([…], achieved by serial dilution) was incubated for up to 7 days under hypoxia and then placed back into normoxic conditions without additional supply of adenosine. Adenosine was refreshed by the daily exchange of media in which adenosine was completely dissolved. Media to be used under hypoxia was placed in the hypoxic chamber 24 hr prior to use for deoxygenation down to 2% O2. The metabolic activity of viable cells at each pre-determined time point was assessed using an MTS assay, which measures mitochondrial activity of cells. Adenosine was used with C2C12 at passage 17, the murine myoblast cell lines, because of their relatively high metabolic activity and proliferation rate. […] Based on the microscopic observations of these cell stained with Giemsa, it was not seen that whole population of cells completely reached the state of necrosis up to the latest time point tested, as a few populations of attached cells were still observed. It is expected that those remaining cells eventually die. […] The effect of dose was also evaluated on a degree of cellular activity (FIG. 3). […] Based on this outcome, the minimum effective concentration of adenosine appears to be about 1 mM under this experimental condition. The reason for 1 mM treated cells not declining up to the duration tested may potentially have been the lower starting number of cells. […] Finally, the long term effect of adenosine was tested on resuming its proliferation after its supply is stopped. The duration tested under the effect of adenosine was 22 days, as the angiogenesis process is known to take 2-3 weeks (Cotton, 1996, Trends Biotechnol, 14(5):158-62; […] et al., 1996, Biomaterials, 17(3):277-84) for completion.

muscle tissue = test: adenosine injected into muscle tissue; type: in vivo
Source text: Adenosine, a nucleoside known for its function as an energy transferring molecule, is also known to function as a modulator of hypoxia-induced ion-channel arrest, which eventually leads to lowering of ATP consumption, and thus oxygen demand. Moreover, it is also known to stimulate angiogenesis. Thus, the present invention provides for the application of adenosine to cell-seeded scaffolds under the hypoxic condition to improve cell survival rate via the downregulation of metabolic rate, and thus lowering oxygen demand and consumption. As contemplated herein, agonists to adenosine may also be used in a similar manner to lower the oxygen demand of cells and tissues. […] Adenosine may be administered alone as a composition or within a formulation, as would be understood by those skilled in the art.

SMILES: Nc1ncnc2c1ncn2[C@@H]1O[C@H](CO)[C@@H](O)[C@H]1O [adenosine]
- cellular metabolic activity pattern at 1 mM adenosine ([1]; 1 mM adenosine, hypoxia, FIG. 3): showed a similar pattern with the cells grown in the hypoxic condition without supply of adenosine
- long term effect: resuming proliferation after adenosine supply is stopped ([1]; 22 days under the effect of adenosine, various doses, FIG. 4): still demonstrated the ability to restore its normal proliferation rate
- cellular (metabolic) activity under hypoxic conditions ([1]; C2C12 passage 17, hypoxia 0.1% O2, daily adenosine up to 7 days, FIG. 2): maintained a steady state of cellular activity
- effect of dose on degree of cellular activity ([1]; adenosine dose increased from 1 to 10 mM, hypoxic conditions, FIG. 3): an escalation of steady hypometabolic state was maintained under hypoxic conditions
- resumption of normal metabolic activity after removal of adenosine ([1]; adenosine removed at day 7, cells returned to normoxic conditions, FIG. 2): resumed their normal metabolic activity two days after adenosine was removed at day 7
- minimum effective concentration of adenosine ([1]; hypoxic conditions, dose study, FIG. 3): about 1 mM
- cellular viability and tissue architecture (muscle tissue): preservation of cellular viability and tissue architecture
